# Assay: Inhibition of MDR1 in human KB/VCR cells assessed as potentiation of vincristine-induced cytotoxicity by measuring vincristine IC50 at 25 uM after 72 hrs by Western blot analysis (Rvb = 4.21 +/- 0.33 uM)
compound,measurement,value
CC(C)C(=O)OC(C)(C)[C@@H]1Cc2c(ccc3ccc(=O)oc23)O1,IC50,560 nM
